How the values were obtained:
B16F10 CDX = assay: B16F10 cell xenograft; type: in vivo, C57BL-6J mice
From the text: Decrease of phospho-MEK1/2 was only observed in erianin and erianin/vemurafenib dual-therapy group, and even all erianin, erianin/vemurafenib dual-therapy, cobimetinib, and cobimetinib/vemurafenib dual-therapy group inhibited phosphorylation of ERK1/2 (Fig. 7d). […] Several clinical studies reveal that immune checkpoint therapies PD-1/PD-L1 synergistically promote RAF inhibitor in treatment of melanoma. Therefore, we checked the immune response involved in antitumor effect of erianin in vivo. After immunosuppression by hydrocortisone (50 mg/kg) for 1 week, B16F10 cell was implanted into C57BL-6J mice followed by vehicle or drug treatment. […]
Fig. 7 Erianin exerts antitumor efficacy in melanoma and colorectal cancer in vivo. a Tumor pharmacodynamic assay was performed in tumor-bearing NPG mice (tumor has been passaged from melanoma patient to mice for three generations). […] Tumor volume was measured once a week. […] One-way ANOVA test. ***p < 0.001. e Antitumor efficacy of erianin with or without immunity using B16F10 cell xenograft in C57BL-6J mouse. f, g Trend of tumor volume over time and tumor weight was measured after treatment on the last day of the study.
Peripheral blood or spleen lymphocytes (CD8a^+, CD4^+, and NK cell) in B16F10 CDX model after treated with erianin were quantified using BD FACSAria^TM III cell sorter. […]

BRAF = biological target: T1, BRAF (Homo sapiens, UniProt P15056, V600E); assay: Erianin-conjugated Sepharose 4B bead pull-down assay; type: binding; conditions: in vitro and ex vivo (A375 cell lysate)
T1 construct: endogenous in cells; host or cells: A375
T1 sequence (P15056 whole entry V600E): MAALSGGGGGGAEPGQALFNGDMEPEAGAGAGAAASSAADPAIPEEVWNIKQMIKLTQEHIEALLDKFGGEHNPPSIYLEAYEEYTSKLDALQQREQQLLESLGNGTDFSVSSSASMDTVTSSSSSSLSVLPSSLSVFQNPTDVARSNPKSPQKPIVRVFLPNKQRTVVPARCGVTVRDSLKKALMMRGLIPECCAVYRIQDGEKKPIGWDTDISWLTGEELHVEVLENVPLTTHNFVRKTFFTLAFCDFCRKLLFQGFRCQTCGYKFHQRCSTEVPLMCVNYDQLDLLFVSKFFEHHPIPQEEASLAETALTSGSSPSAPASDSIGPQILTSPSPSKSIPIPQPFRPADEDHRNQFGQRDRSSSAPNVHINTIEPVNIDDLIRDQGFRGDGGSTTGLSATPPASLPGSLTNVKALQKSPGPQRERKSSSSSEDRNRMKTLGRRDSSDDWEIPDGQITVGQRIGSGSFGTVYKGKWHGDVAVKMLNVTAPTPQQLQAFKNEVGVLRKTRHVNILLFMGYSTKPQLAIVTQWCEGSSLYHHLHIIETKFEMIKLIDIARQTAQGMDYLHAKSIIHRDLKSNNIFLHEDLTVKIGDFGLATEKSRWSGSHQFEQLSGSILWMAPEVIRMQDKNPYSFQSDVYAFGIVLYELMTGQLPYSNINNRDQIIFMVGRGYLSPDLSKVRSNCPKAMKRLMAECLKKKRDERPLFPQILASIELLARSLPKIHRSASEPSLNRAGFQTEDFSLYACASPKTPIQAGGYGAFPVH
Procedure: (§1) Cell lysate (500 μg) or recombinant proteins (200 ng) were incubated with erianin-CNBr activated sepharose 4B overnight at 4 °C, and the protein-beads complex was washed four times by the use of rotational incubator to remove non-specific binding. Western blotting was developed to check the pull-down bands.

BRAF WT (381-end) = biological target: T2, BRAF WT (381-end) (Homo sapiens, UniProt P15056); assay: In vitro kinase assay (western blotting); type: biochemical; conditions: 12.5 to 50 nM
T2 construct: purchased Signal Chem B08-11BG
T2 sequence (P15056 381-766 limits assumed): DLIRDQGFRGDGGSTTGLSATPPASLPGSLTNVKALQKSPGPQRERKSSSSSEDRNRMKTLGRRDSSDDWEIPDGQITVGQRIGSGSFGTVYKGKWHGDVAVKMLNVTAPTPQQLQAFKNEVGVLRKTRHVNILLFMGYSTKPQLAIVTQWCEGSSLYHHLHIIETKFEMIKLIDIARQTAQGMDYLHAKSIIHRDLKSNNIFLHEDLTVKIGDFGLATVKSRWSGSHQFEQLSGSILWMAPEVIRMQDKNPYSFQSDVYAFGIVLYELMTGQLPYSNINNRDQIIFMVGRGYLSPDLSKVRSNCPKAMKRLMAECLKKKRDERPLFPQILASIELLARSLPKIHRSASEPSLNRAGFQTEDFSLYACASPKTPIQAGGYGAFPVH
Procedure: (§2) After incubated with 100–400 μM ATP in kinase assay buffer for 30 min, the phosphorylation of the substrate/total substrate protein was detected by western blotting. For ADP-glo kinase assay, unconsumed ATP was depleted with the addition of ADP-Glo™. Followed by kinase detection reagent to convert ADP to ATP, consumption of ATP was detected to evaluate the kinase activity. For more details, refer to the manufacturer’s instructions of ADP-Glo™ Kinase Assay.
(§3) Figure S2. […] Enzyme kinetics parameters including Vmax and Km were obtained using the Michaelis double-reciprocal curve equation.

BRAF V600E (416-end) = biological target: T3, BRAF V600E (416-end) (Homo sapiens, UniProt P15056, V600E); assay: In vitro kinase assay (western blotting); type: biochemical; conditions: 12.5 to 50 nM
T3 construct: purchased Signal Chem B08-12G
T3 sequence (P15056 416-766 V600E): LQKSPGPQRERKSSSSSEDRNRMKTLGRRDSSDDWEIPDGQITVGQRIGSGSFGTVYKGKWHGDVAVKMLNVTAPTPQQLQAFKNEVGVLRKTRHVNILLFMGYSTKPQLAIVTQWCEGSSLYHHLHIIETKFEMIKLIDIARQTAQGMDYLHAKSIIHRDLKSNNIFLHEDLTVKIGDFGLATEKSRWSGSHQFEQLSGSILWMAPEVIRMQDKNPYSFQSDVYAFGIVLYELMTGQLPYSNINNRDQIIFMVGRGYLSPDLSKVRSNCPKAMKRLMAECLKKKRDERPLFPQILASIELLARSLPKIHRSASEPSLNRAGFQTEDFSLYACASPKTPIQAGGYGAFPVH
Procedure: as §2, §3

CRAF = biological target: T4, CRAF (Homo sapiens, UniProt P04049); assay: Erianin-conjugated Sepharose 4B bead pull-down assay; type: binding; conditions: in vitro and ex vivo (A375 cell lysate)
T4 construct: endogenous in cells; host or cells: A375
T4 sequence (P04049 whole entry): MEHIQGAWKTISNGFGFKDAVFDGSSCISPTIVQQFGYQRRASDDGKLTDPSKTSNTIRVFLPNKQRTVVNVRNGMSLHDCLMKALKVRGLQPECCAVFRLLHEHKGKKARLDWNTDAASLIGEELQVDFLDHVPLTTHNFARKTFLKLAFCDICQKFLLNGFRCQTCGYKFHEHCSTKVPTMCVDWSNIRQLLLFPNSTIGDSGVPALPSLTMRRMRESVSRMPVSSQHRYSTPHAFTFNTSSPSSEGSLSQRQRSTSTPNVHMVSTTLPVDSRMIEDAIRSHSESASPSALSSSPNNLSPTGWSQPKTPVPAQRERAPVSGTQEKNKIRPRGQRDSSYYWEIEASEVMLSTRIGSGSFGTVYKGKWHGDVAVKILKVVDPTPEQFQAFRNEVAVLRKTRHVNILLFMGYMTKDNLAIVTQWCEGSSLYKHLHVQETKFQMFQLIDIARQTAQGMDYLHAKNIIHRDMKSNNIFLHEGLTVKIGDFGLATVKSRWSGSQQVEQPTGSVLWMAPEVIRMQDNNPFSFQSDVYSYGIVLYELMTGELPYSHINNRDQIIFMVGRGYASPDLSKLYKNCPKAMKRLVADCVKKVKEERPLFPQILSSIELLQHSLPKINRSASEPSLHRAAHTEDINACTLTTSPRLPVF
Procedure: 293 T cells were transfected with plasmids of pcDNA3.1-3×Flag-C-MAP2K1/MAP2K1 (K97A, M146A), MAP2K2/MAP2K1 (K101A, M150A), or CRAF/CRAF (K375A). […]
as §1

COc1ccc(CCc2cc(OC)c(OC)c(OC)c2)cc1O [Erianin]
CD8a+, CD4+ T cells, and NK cells (B16F10 CDX; flow cytometry after erianin treatment): increased significantly | tumor growth (B16F10 CDX; monotherapy): inhibited tumor growth | binding in pull-down (BRAF): directly bound | BRAF WT kinase activity (BRAF WT (381-end)): could not suppress | BRAF V600E kinase activity (BRAF V600E (416-end)): could not suppress | binding in pull-down (CRAF): directly bound

Reference: publication PMC9986241 (Signal Transduction and Targeted Therapy, 2023)
